Source: PMC4236894, “Salicylanilide Diethyl Phosphates as Potential Inhibitors of Some Mycobacterial Enzymes” (The Scientific World Journal, 2014)
Like-named read-outs stand apart in the source and are kept apart here.

What was measured:
[1] = molecular target: mycobacterial isocitrate lyase (ICL) (Mycobacterium tuberculosis, UniProt P9WKK7); test: Isocitrate lyase assay (ICL1), glyoxylate phenyl hydrazone formation; type: biochemical; settings: read-out: % ICL inhibition at 10 μM (±standard deviation)
Chain of mycobacterial isocitrate lyase (ICL) (P9WKK7 whole entry): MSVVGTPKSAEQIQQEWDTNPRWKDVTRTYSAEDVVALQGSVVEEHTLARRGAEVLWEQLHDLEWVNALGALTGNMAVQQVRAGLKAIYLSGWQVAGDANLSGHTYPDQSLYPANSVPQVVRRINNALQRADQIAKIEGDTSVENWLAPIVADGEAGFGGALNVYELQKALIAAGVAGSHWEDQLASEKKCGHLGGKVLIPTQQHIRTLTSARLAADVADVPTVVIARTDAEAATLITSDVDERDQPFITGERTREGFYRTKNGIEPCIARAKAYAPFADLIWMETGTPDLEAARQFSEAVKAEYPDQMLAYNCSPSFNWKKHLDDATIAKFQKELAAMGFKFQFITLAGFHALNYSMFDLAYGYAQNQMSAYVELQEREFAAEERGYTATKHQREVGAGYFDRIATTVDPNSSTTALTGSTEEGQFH
Description: Isocitrate lyase activity was assayed according to the protocol reported by Dixon and Kornberg (glyoxylate phenyl hydrazone formation) at 10 µM of the investigated compounds. […] A description of the method can be found in the literature.

[2] = molecular target: T1, L-alanine dehydrogenase (MtAlaDH) (Mycobacterium tuberculosis, UniProt P9WQB1); test: biochemical
T1 sequence (P9WQB1 1-371): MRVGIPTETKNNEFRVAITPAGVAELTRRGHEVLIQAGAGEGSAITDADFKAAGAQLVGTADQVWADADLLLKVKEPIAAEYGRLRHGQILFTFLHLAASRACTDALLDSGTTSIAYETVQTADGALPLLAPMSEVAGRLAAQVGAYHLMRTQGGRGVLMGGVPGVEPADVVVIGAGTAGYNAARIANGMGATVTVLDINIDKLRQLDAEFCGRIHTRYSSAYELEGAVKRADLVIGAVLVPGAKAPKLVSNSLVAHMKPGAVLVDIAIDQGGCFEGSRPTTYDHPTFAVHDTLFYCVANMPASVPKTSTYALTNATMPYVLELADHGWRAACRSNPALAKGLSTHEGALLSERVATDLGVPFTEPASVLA

[3] = molecular target: T2, Lysine ε-aminotransferase (MtLAT) (Mycobacterium tuberculosis, UniProt P9WQ77); test: biochemical
T2 sequence (P9WQ77 1-449): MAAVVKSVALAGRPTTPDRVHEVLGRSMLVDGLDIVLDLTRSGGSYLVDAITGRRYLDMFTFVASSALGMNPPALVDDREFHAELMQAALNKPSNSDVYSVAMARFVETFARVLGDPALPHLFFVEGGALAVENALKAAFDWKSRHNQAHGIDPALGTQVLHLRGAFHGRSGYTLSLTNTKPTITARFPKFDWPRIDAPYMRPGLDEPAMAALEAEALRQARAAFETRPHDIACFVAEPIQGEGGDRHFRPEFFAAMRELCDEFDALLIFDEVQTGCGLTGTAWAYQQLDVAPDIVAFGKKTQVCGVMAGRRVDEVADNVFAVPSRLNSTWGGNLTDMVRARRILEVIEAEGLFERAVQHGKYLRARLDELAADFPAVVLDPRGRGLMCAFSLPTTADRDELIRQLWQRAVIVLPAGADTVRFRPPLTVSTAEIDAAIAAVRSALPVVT

Chorismate mutase (MtCM) = molecular target: T3, Chorismate mutase (MtCM) (Mycobacterium tuberculosis, UniProt P9WIB9); test: biochemical
T3 sequence (P9WIB9 34-199): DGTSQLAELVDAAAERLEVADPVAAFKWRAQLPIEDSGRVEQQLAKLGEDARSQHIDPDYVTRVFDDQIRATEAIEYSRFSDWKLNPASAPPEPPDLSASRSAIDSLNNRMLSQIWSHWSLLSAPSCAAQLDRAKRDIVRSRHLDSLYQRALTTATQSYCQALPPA
Description: Reaction volumes of 0.4 mL of chorismate (typically 1 mM) in 50 mM Tris HCl (pH 7.5), 0.5 mM EDTA, 0.1 mg/mL bovine serum albumin, and 10 mM β-mercaptoethanol were incubated at 37°C for 5 min. […] The reaction was allowed to proceed at 37°C and was terminated after 1 to 5 min with 0.4 mL 1 M HCl. After a further incubation at 37°C for 10 min to convert prephenate, which is formed in the enzymatic reaction, to phenylpyruvate, 0.8 mL 2.5 M NaOH was added. The absorbance of the phenylpyruvate chromophore was read at 320 nm. We set up a blank with no enzyme for every reaction to account for the nonenzymatic conversion of chorismate to prephenate and added the enzyme after the addition of NaOH. […] A description of the methods can be found in the literature.

[4] = molecular target: Pantothenate synthetase (MtPS) (Mycobacterium tuberculosis, UniProt P9WIL5); test: Mycobacterial pantothenate synthetase (MtPS) screening; type: biochemical; settings: 50 μM compound
Chain of Pantothenate synthetase (MtPS) (P9WIL5 whole entry, looked up): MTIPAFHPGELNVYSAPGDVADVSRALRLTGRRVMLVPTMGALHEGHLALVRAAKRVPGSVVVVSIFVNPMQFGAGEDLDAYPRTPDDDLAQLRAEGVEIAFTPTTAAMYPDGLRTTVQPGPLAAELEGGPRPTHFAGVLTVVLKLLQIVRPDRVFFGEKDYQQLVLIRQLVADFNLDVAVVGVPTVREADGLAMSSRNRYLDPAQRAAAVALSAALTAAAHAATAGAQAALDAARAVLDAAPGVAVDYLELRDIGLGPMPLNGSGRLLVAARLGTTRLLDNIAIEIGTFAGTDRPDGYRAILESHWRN
Description: Sixty microliters of the PS reagent mix was added, including NADH, pantoic acid, β-alanine, ATP, phosphoenolpyruvate, MgCl2, myokinase, pyruvate kinase, and lactate dehydrogenase in buffer, to each well of a 96-well plate. The compounds were then added to plates in 1 μL volumes. The reaction was initiated by the addition of 39 μL PS diluted in buffer. The final concentrations in the reaction were 0.4 mM NADH, 5 mM pantoic acid, 10 mM MgCl2, 5 mM β-alanine, 10 mM ATP, 1 mM potassium phosphoenolpyruvate, and 18 units/mL each of chicken muscle myokinase, rabbit muscle pyruvate kinase, and rabbit muscle lactate dehydrogenase diluted in 100 mM HEPES buffer (pH 7.8), 1% DMSO, and 5 μg/mL PS in a final volume of 100 μL. The test plate was immediately transferred to a microplate reader, and absorbance was measured at 340 nm every 12 sec for 120 sec. […] The per cent inhibition was calculated using the following formula: 100 ∗ 1 − compound rate − background rate/full reaction rate − background rate.

Mtb H37Rv strain = settings: cited from earlier work

Structure (SMILES)	inhibition at 10 µM ([1]; 10 μM compound)	IC50 [2]	% inhibition at 50 μM against L-MtAlaDH [2]	% inhibition at 50 μM against MtLAT [3]	% inhibition at 50 μM against MtCM (Chorismate mutase (MtCM))	also measured
NNC(=O)c1ccncc1 [Isoniazid]	0%					
O=C(O)CC[N+](=O)[O-] [3-Nitropropionic acid, 3-nitropropionic acid]	25 ± 4.1%					
CCOP(=O)(OCC)Oc1cc(Cl)ccc1C(=O)Nc1cccc(Cl)c1 [1s, 5-Chloro-2-[(3-chlorophenyl)carbamoyl]phenyl diethyl phosphate]		4.96 µM				inhibition at 10 µM [1]: 6 ± 0.83%; inhibition at 50 µM ([2]; read-out: % inhibition at 50 μM against L-MtAlaDH, 50 μM compound): > 70%; inhibition at 50 µM ([3]; read-out: % inhibition at 50 μM against MtLAT, 50 μM compound): > 50%; inhibition at 50 µM (Chorismate mutase (MtCM); read-out: % inhibition at 50 μM against MtCM, 50 μM compound): > 60%; inhibition at 50 µM ([4]; read-out: % inhibition at 50 μM against MtPS): 11.2%; MICs against actively growing Mtb H37Rv strain (Mtb H37Rv strain): 4 to 8 µM
CCOP(=O)(OCC)Oc1cc(Cl)ccc1C(=O)Nc1cccc(Cl)c1 [1j]		> 50 µM	12.30%	29.30%	54.56%	% inhibition at 50 μM against MtPS [4]: 3.64%
CCOP(=O)(OCC)Oc1cc(Cl)ccc1C(=O)Nc1ccc(C(F)(F)F)cc1 [1r]		> 50 µM	47.28%	23.18%	50.05%	
